Results published in publication PMC5690597, “Suppression and resolution of autoimmune arthritis by rhesus θ-defensin-1, an immunomodulatory macrocyclic peptide” (PLoS ONE, 2017).

Test system: DA/OlaHsd rats with pristane-induced arthritis
Experiment: Pristane-induced arthritis (PIA), established disease (AS ≥ 3)
Type: in vivo, rat
Conditions: for effect on arthritis progression by day 3 of treatment compared to vehicle controls: MTX 0.25 mg/kg i.p. q3d, etanercept 0.4 mg/kg s.c. q3d, P < 0.05; for rate of complete disease resolution on day 11, comparison with RA drugs: RTD-1 s.c. (4 of 16), MTX 0.25 mg/kg i.p. q3d (1 of 22), etanercept 0.4 mg/kg s.c. q3d (0 of 21), saline 0 of 19, 2 independent experiments
Protocol: Female DA/OlaHsd (D blood group allele and Agouti, also known as Dark Agouti), rats were obtained from Harlan Laboratories (Indianapolis, IN). Animals were allowed to acclimate for 48–72 hours prior to experimental use. Animals were fed standard chow ad lib during a 12-hour day/night cycle. PIA was induced in 5–7 week old animals (90–100 gm) by intradermal injection of 250 μl pristane (Sigma) divided into 3–5 sites at the base of the tail. Animals were monitored daily and disease severity of each limb was scored 0–4 using the method of Brand et al.. The severity scores for all limbs of individual animals were totaled to give an individual’s arthritis severity score (AS) ranging from zero for normal animals to maximum disease score of sixteen. […] In three separate trials, treatment was also blinded to scorers. […] Treatment with saline (vehicle), RTD-1, or anti-arthritic agents was randomized and initiated when an animal first presented with an AS of 3 or more. RTD-1 was administered subcutaneously with doses ranging from 0.2 to 5.0 mg/kg in an injection volume of 0.5 ml at intervals ranging from once a day (qd) to once every seven days (q7d). MTX was administered at 0.25 mg/kg by intraperitoneal injection q3d. Etanercept was administered at 0.4 mg/kg by subcutaneous injection q3d.

CN(Cc1cnc2nc(N)nc(N)c2n1)c1ccc(C(=O)N[C@@H](CCC(=O)O)C(=O)O)cc1 [MTX, Methotrexate, reference compound]
effect on arthritis progression by day 3 of treatment compared to vehicle controls: limited the progression of arthritis | rate of complete disease resolution on day 11, comparison with RA drugs: 4.5%

Etanercept [reference compound]
effect on arthritis progression by day 3 of treatment compared to vehicle controls: limited the progression of arthritis | rate of complete disease resolution on day 11, comparison with RA drugs: 0%
